Key:
Assay in all cases: microbe, parasite or virus in culture
Hepatitis C virus [1] = settings: subtype 1a
Description: Antiviral activity against HCV 1a by replicon based assay

Hepatitis C virus [2] = settings: genotype 1b
Description: Antiviral activity against HCV 1b by replicon based assay

Hepatitis C virus [3] = settings: genotype 1b; remark: listed apart in the source
Description: Antiviral activity against HCV 1b in presence of 5% fetal calf serum by replicon based assay

Hepatitis C virus [4] = settings: genotype 1b; remark: listed apart in the source
Description: Antiviral activity against HCV 1b in presence of 40% human serum by replicon based assay

EC50 (Hepatitis C virus [1]) | EC50 (Hepatitis C virus [2]) | EC50 (Hepatitis C virus [3]) | EC50 (Hepatitis C virus [4]) | Structure (SMILES)
0.016 µM | 0.002 µM | 0.002 µM | 0.736 µM | CC(C)CCn1c(=O)c(C2=NS(=O)(=O)c3cc(NS(C)(=O)=O)ccc3N2)c(O)c2cccnc21
 |  | 0.0056 µM | 0.0382 µM | C/C=C/c1cn(CCC(C)C)c(=O)c(C2=NS(=O)(=O)c3cc(NS(C)(=O)=O)ccc3N2)c1O
 |  | 0.163 µM | 0.911 µM | CC(C)CCn1ccc(O)c(C2=NS(=O)(=O)c3cc(NS(C)(=O)=O)ccc3N2)c1=O
 |  | 0.0088 µM | 0.0625 µM | C=Cc1cn(CCC(C)C)c(=O)c(C2=NS(=O)(=O)c3cc(NS(C)(=O)=O)ccc3N2)c1O

— ChEMBL document CHEMBL1144765, “Des-A-ring benzothiadiazines: inhibitors of HCV genotype 1 NS5B RNA-dependent RNA polymerase” (Bioorg Med Chem Lett, 2008)
